Drawing on ChEMBL document CHEMBL3991601, “The target landscape of clinical kinase drugs” (Science, 2017), this text covers Kd for 13 molecules.

The target of assay [1] is Cyclin-dependent kinase 2 (Homo sapiens, UniProt P24941).
Assay [2] deals with Ephrin type-A receptor 4 (Homo sapiens, UniProt P54764).
Assay [3] addresses Glycogen synthase kinase-3 alpha (Homo sapiens, UniProt P49840).
For assay [4], the target named is T1, Mitogen-activated protein kinase kinase kinase 3 (Homo sapiens, UniProt Q99759).
T1 sequence (Q99759 whole entry): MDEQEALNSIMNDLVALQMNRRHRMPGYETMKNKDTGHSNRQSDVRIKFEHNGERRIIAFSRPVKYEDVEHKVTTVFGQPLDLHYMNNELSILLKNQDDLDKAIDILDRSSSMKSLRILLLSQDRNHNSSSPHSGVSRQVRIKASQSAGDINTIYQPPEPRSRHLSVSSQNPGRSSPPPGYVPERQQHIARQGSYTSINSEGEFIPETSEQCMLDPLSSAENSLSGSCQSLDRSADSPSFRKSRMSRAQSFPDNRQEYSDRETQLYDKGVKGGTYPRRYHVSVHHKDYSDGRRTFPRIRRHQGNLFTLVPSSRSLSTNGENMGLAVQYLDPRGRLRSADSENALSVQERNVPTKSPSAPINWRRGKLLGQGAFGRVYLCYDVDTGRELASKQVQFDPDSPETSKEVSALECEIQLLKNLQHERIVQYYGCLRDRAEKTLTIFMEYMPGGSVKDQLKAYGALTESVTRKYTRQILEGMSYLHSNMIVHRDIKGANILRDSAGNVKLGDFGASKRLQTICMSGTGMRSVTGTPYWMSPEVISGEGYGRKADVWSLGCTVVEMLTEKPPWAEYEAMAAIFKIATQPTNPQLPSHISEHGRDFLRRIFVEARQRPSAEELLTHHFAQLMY

In assay [5] the target is T2, Mitogen-activated protein kinase kinase kinase 5 (Homo sapiens, UniProt Q99683).
T2 sequence (Q99683 whole entry): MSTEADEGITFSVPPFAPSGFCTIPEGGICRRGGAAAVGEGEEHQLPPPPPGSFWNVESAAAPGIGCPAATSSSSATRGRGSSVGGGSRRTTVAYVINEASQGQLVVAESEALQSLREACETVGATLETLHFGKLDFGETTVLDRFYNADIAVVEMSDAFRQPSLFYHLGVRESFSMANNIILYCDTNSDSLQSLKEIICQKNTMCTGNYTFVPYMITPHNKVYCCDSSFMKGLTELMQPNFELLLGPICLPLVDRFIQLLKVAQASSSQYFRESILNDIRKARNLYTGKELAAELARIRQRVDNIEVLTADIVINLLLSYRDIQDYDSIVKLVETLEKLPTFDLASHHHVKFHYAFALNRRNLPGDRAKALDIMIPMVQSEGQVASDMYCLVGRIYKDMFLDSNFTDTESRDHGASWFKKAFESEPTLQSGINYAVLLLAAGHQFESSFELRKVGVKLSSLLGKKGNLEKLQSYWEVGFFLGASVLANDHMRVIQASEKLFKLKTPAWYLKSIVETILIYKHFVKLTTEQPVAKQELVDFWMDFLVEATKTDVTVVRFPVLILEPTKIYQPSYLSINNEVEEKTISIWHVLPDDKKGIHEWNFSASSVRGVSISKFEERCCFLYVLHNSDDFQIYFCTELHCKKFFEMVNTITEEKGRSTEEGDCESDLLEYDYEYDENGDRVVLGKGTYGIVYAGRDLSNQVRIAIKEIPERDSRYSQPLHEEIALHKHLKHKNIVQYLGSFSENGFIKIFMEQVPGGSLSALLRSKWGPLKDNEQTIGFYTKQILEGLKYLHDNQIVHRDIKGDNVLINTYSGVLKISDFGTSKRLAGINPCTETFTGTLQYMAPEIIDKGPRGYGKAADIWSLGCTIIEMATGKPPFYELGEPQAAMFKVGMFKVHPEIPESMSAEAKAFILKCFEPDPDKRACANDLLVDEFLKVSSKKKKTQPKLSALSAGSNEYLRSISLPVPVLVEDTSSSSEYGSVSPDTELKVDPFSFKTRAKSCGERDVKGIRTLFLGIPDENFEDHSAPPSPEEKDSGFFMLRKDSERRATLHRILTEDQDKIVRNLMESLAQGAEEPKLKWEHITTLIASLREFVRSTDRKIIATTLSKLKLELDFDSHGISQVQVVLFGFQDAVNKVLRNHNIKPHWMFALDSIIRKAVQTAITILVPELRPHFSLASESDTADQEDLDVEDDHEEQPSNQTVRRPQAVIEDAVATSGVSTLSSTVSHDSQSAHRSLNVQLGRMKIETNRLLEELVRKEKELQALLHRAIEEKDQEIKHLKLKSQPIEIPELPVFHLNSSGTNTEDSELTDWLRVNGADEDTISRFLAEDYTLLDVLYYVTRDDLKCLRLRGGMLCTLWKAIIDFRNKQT

Assay [6] addresses Platelet-derived growth factor receptor beta (Homo sapiens, UniProt P09619).
For assay [7], the target named is cAMP-dependent protein kinase catalytic subunit beta (Homo sapiens, UniProt P22694).
The target of assay [8] is T3, Serine/threonine-protein kinase 4 (Homo sapiens, UniProt Q13043).
T3 sequence (Q13043 whole entry): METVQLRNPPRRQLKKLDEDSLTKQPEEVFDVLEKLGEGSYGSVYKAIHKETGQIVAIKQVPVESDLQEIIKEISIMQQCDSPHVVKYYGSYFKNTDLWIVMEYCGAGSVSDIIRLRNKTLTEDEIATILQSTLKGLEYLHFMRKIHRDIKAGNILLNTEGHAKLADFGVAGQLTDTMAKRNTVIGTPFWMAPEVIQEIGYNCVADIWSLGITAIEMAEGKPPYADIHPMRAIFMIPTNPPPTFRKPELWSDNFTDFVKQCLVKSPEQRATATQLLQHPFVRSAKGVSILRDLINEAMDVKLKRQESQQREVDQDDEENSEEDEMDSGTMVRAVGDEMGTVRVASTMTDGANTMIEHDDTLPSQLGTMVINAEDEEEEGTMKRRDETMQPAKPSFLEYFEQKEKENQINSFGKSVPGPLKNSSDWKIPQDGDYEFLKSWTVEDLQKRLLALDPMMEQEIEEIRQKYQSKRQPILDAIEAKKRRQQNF

Activity calls are given as the source filed them. Rule as the data show it, for most assays here: actives have a measured Kd and inactives only a lower limit. Where only a bound is given, the exact number is not on record here.
Also: in the data inactive means no Kd found up to 30 µM.

Chain of Platelet-derived growth factor receptor beta (P09619 whole entry): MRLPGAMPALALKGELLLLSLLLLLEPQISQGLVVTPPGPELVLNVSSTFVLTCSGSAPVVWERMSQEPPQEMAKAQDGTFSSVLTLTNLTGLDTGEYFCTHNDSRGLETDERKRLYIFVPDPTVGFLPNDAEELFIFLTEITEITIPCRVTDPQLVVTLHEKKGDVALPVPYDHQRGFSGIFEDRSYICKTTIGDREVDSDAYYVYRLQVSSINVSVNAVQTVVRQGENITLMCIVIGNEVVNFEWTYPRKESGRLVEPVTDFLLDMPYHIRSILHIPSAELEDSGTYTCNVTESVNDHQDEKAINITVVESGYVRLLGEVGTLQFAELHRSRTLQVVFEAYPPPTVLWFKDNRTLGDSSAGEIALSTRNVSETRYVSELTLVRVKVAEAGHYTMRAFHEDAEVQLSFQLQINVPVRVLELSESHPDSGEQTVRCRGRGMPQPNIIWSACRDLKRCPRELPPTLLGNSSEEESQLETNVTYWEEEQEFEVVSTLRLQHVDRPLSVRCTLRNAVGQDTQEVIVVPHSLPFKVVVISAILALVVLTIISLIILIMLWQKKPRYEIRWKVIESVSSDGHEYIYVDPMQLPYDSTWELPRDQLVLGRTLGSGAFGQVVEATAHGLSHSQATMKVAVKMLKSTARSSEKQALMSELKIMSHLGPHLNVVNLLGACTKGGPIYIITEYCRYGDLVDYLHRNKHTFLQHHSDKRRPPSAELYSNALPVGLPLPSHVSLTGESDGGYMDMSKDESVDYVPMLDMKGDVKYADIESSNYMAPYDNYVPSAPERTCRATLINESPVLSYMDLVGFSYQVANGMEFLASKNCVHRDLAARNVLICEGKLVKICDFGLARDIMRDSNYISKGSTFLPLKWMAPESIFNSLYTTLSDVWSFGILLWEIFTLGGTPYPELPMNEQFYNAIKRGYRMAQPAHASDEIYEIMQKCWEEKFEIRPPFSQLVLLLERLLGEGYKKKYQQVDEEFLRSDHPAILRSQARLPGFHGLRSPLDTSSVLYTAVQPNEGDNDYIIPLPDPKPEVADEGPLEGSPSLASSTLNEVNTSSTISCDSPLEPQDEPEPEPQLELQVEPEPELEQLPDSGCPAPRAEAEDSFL
Chain of Glycogen synthase kinase-3 alpha (P49840 whole entry): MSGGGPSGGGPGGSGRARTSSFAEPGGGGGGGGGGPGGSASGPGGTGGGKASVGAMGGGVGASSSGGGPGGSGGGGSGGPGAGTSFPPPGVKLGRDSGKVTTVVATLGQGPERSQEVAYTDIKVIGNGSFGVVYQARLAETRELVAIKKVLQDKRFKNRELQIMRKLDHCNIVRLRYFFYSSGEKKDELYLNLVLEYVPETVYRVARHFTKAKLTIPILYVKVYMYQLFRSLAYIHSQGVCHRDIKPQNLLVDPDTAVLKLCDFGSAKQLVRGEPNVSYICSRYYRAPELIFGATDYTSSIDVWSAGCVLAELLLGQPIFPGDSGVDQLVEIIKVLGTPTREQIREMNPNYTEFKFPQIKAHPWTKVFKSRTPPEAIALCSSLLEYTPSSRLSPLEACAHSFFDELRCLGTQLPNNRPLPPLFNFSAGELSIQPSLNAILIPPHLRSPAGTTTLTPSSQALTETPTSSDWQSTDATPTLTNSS
Chain of Ephrin type-A receptor 4 (P54764 whole entry): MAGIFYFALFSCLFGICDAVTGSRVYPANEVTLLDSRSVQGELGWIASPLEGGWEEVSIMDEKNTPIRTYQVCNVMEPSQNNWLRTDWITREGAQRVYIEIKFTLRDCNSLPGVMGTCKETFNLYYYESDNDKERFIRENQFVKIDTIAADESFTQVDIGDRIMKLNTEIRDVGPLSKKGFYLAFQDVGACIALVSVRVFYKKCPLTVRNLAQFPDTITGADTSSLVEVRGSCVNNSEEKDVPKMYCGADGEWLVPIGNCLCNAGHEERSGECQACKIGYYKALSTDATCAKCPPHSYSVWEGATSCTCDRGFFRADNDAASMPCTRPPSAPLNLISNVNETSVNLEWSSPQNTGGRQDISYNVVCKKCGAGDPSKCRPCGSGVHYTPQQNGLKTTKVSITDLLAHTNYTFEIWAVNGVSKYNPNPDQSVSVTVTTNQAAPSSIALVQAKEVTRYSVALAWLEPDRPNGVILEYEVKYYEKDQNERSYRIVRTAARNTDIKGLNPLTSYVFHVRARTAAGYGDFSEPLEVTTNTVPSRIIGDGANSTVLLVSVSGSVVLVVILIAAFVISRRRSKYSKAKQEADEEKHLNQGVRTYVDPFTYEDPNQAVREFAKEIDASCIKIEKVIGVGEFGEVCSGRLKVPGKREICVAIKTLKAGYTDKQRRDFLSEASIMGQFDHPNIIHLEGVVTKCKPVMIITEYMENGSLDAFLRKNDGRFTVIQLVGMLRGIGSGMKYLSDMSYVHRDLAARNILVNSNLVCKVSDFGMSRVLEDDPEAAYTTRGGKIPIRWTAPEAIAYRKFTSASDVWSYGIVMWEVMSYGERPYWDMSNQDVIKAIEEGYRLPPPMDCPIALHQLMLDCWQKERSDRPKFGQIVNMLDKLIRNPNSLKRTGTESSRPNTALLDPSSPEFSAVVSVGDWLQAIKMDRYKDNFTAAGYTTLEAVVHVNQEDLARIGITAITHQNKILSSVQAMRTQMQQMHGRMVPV

In the case of `Cc1c(Cn2c(C)nc3c(C(=O)O)cc(N4CCOCC4)cc32)cccc1C(F)(F)F` [GSK-2636771], the Kd in assay [1], in assay [2], in assay [3], in assay [4], in assay [5] and in assay [6] was > 30 µM (inactive) throughout. Also, the Kd in assay [7] and in assay [8] was > 30 µM (inactive) in each case.
On to `Cn1cc(-c2[nH]c3cc(NC(=O)[C@H](N)C4CCCCC4)cc4c3c2C=NNC4=O)cn1`, for which the Kd in assay [1] was > 30 µM (inactive); in assay [2] it was > 30 µM (inactive); in assay [3], > 30 µM (inactive); in assay [4], > 30 µM (inactive); in assay [5], > 30 µM (inactive); in assay [6] it was 0.1 µM (active). Besides, the Kd in assay [7] and in assay [8] was > 30 µM (inactive) in each case.
Turning to `C[C@@H]1COC(Nc2ccc3ncnc(Nc4ccc(OCc5nccs5)c(Cl)c4)c3c2)=N1` [VARLITINIB], the Kd in assay [1], in assay [2], in assay [3], in assay [4], in assay [5] and in assay [6] was > 30 µM (inactive) throughout. Moreover, the Kd in assay [7] and in assay [8] was > 30 µM (inactive) throughout.
Take `CCc1cc2c(cc1N1CCC(N3CCOCC3)CC1)C(C)(C)c1[nH]c3cc(C#N)ccc3c1C2=O` [ALECTINIB]: the Kd in assay [1], in assay [2], in assay [3], in assay [4], in assay [5] and in assay [6] was > 30 µM (inactive) throughout. Moreover, the Kd in assay [7] and in assay [8] was > 30 µM (inactive) in each case.
For `C#Cc1cccc(Nc2ncnc3cc4c(cc23)OCCOCCOCCO4)c1` [ICOTINIB], the Kd in assay [1], in assay [2], in assay [3], in assay [4], in assay [5] and in assay [6] was > 30 µM (inactive) throughout. In addition, the Kd in assay [7] and in assay [8] was > 30 µM (inactive) throughout.
Consider `Cn1c(=O)c(F)c(Nc2ccc(I)cc2F)c2c(=O)n(C[C@@H](O)CO)cnc21` [TAK-733], for which the Kd in assay [1], in assay [2], in assay [3], in assay [4], in assay [5] and in assay [6] was > 30 µM (inactive) in each case. Also, the Kd in assay [7] and in assay [8] was > 30 µM (inactive) in each case.
For `COc1cc2ncnc3c2cc1OCCCCCN(C)Cc1ccc(Br)cc1N3` [JNJ-26483327], the Kd in assay [1], in assay [2], in assay [3], in assay [4], in assay [5] and in assay [6] was > 30 µM (inactive) in each case. Also, the Kd in assay [7] and in assay [8] was > 30 µM (inactive) each time.
As for `FC(F)(F)c1ccc(CNc2ccc(Cc3c[nH]c4ncc(Cl)cc34)cn2)cn1` [PEXIDARTINIB], the Kd in assay [1], in assay [2], in assay [3], in assay [4], in assay [5] and in assay [6] was > 30 µM (inactive) throughout. Also, the Kd in assay [7] and in assay [8] was > 30 µM (inactive) in each case.
Consider `COc1ccc2c(OCc3nnc4ccc(-c5ccccc5)nn34)ccnc2c1` [AMG-208], for which the Kd in assay [1], in assay [2], in assay [3], in assay [4], in assay [5] and in assay [6] was > 30 µM (inactive) in each case. Besides, the Kd in assay [7] and in assay [8] was > 30 µM (inactive) each time.
For the molecule `Cc1cc(-c2cc(OC(=O)c3ccccc3)ccc2Cl)cc2nnc(Nc3ccc(OCCN4CCCC4)cc3)nc12` [TG100-801], the Kd is > 30 µM (inactive) in assay [1]; 1.93 µM in assay [2]; > 30 µM (inactive) in assay [3]; > 30 µM (inactive) in assay [4]; > 30 µM (inactive) in assay [5]; 0.109 µM (active) in assay [6]. In addition, the Kd in assay [7] and in assay [8] was > 30 µM (inactive) throughout.
With `O=C(NC[C@H](O)CO)c1ccncc1Nc1ccc(I)cc1F` [PIMASERTIB], the Kd in assay [1], in assay [2], in assay [3], in assay [4], in assay [5] and in assay [6] was > 30 µM (inactive) each time. The Kd in assay [7] and in assay [8] was > 30 µM (inactive) each time.
Take `NC(=O)c1ccc(N(C(N)=O)c2c(F)cccc2F)nc1-c1ccc(F)cc1F` [VX-702]: the Kd in assay [1], in assay [2], in assay [3], in assay [4], in assay [5] and in assay [6] was > 30 µM (inactive) in each case. The Kd in assay [7] and in assay [8] was > 30 µM (inactive) throughout.
Turning to `CC[C@@](C)(Nc1ccnc(-c2c[nH]c3ncccc23)n1)C(=O)NCC(F)(F)F` [DECERNOTINIB], the Kd in assay [1], in assay [2], in assay [3], in assay [4], in assay [5] and in assay [6] was > 30 µM (inactive) throughout. Also, the Kd in assay [7] and in assay [8] was > 30 µM (inactive) in each case.

Broadly, the Kd is a measure of binding affinity in units of concentration.
